# Assays:
# [1] = target: Dual specificity protein kinase CLK3 (Homo sapiens) (UniProt P49761); test: Binding affinity to wild-type human full length CLK3 (M1 to R490 residues) expressed in bacterial expression system assessed as residual binding level at 1 uM by Kinomescan method relative to control
# [2] = target: Tyrosine-protein kinase ABL1 (Homo sapiens) (UniProt P00519); test: Binding affinity to wild-type human phosphorylated ABL1 (S229 to K512 residues) expressed in mammalian expression system assessed as residual binding level at 1 uM by Kinomescan method relative to control
# [3] = target: Calcium/calmodulin-dependent protein kinase type 1D (Homo sapiens) (UniProt Q8IU85); test: Binding affinity to wild-type human partial length CAMK1D (M1 to K299 residues) expressed in bacterial expression system assessed as residual binding level at 1 uM by Kinomescan method relative to control
# [4] = target: Serine/threonine-protein kinase TAO3 (Homo sapiens) (UniProt Q9H2K8); test: Binding affinity to wild-type human partial length TAOK3 (M1 to T316 residues) expressed in mammalian expression system assessed as residual binding level at 1 uM by Kinomescan method relative to control
# [5] = tested on: Epidermal growth factor receptor (Homo sapiens), P00533 [L861Q]; test: Binding affinity to human partial length EGFR L861Q mutant (R669 to V1011 residues) expressed in bacterial expression system assessed as residual binding level at 1 uM by Kinomescan method relative to control
# [6] = target: Serine/threonine-protein kinase TAO2 (Homo sapiens) (UniProt Q9UL54); test: Binding affinity to wild-type human partial length TAOK2 (M1 to A320 residues) expressed in mammalian expression system assessed as residual binding level at 1 uM by Kinomescan method relative to control
# [7] = tested on: Tyrosine-protein kinase ABL1 (Homo sapiens), P00519 [H396P]; test: Binding affinity to human phosphorylated ABL1 H396P mutant (S229 to K512 residues) expressed in mammalian expression system assessed as residual binding level at 1 uM by Kinomescan method relative to control
# [8] = target: Serine/threonine-protein kinase B-raf (Homo sapiens) (UniProt P15056); test: Binding affinity to wild-type human partial length BRAF (S429 to E741 residues) expressed in mammalian expression system assessed as residual binding level at 1 uM by Kinomescan method relative to control
# [9] = target: Vascular endothelial growth factor receptor 2 (Homo sapiens) (UniProt P35968); test: Binding affinity to wild-type human partial length VEGFR2 (R787 to P1253 residues) expressed in mammalian expression system assessed as residual binding level at 1 uM by Kinomescan method relative to control
# [10] = target: Myosin light chain kinase 2, skeletal/cardiac muscle (Homo sapiens) (UniProt Q9H1R3); test: Binding affinity to wild-type human partial length MYLK2 (D258 to K570 residues) expressed in bacterial expression system assessed as residual binding level at 1 uM by Kinomescan method relative to control
# Sequence of Myosin light chain kinase 2, skeletal/cardiac muscle (Homo sapiens) (Q9H1R3 whole entry, the tested form may be a part): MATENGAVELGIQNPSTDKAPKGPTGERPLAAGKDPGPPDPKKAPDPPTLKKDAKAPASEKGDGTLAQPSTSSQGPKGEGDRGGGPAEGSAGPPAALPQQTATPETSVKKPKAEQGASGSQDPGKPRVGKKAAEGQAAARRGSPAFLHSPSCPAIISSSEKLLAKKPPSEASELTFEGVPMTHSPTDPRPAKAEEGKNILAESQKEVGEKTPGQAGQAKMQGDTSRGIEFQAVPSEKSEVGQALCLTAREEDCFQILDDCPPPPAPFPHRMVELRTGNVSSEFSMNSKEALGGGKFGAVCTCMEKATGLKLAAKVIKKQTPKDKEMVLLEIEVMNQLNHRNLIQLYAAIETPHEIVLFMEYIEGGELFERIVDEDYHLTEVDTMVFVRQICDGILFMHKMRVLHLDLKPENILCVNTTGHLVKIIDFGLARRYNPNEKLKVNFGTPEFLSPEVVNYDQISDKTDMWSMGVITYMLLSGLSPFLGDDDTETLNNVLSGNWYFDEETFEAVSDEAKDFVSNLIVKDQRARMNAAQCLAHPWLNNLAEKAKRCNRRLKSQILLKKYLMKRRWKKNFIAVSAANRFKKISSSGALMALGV
# [11] = target: Serine/threonine-protein kinase PLK1 (Homo sapiens) (UniProt P53350); test: Binding affinity to wild-type human partial length PLK1 (A33 to F325 residues) expressed in mammalian expression system assessed as residual binding level at 1 uM by Kinomescan method relative to control
# [12] = target: Inhibitor of nuclear factor kappa-B kinase subunit beta (Homo sapiens) (UniProt O14920); test: Binding affinity to wild-type human full length IKK-beta (M1 to S756 residues) expressed in mammalian expression system assessed as residual binding level at 1 uM by Kinomescan method relative to control
# Sequence of Inhibitor of nuclear factor kappa-B kinase subunit beta (Homo sapiens) (O14920 whole entry, the tested form may be a part): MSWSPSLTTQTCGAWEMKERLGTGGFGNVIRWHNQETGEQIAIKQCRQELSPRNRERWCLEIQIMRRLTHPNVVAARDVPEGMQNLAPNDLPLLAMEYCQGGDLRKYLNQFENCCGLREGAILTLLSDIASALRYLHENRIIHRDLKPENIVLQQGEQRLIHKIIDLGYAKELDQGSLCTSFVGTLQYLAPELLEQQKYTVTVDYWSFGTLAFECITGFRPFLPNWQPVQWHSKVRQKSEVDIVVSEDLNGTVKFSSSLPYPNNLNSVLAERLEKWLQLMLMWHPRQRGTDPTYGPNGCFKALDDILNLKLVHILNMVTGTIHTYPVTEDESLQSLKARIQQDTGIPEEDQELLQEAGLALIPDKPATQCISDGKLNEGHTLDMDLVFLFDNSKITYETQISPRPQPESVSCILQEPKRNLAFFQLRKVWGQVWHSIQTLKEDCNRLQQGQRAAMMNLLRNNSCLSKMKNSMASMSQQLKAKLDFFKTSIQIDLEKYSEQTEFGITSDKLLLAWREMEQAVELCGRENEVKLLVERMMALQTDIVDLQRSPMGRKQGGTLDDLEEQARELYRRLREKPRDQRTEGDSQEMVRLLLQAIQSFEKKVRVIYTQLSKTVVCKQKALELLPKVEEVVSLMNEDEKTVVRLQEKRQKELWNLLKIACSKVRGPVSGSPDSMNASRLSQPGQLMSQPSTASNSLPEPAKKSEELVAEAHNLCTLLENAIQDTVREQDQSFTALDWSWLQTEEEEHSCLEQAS
# [13] = target: Serine/threonine-protein kinase MAK (Homo sapiens) (UniProt P20794); test: Binding affinity to wild-type human partial length MAK (M1 to P314 residues) expressed in bacterial expression system assessed as residual binding level at 1 uM by Kinomescan method relative to control
# Sequence of Serine/threonine-protein kinase MAK (Homo sapiens) (P20794 whole entry, the tested form may be a part): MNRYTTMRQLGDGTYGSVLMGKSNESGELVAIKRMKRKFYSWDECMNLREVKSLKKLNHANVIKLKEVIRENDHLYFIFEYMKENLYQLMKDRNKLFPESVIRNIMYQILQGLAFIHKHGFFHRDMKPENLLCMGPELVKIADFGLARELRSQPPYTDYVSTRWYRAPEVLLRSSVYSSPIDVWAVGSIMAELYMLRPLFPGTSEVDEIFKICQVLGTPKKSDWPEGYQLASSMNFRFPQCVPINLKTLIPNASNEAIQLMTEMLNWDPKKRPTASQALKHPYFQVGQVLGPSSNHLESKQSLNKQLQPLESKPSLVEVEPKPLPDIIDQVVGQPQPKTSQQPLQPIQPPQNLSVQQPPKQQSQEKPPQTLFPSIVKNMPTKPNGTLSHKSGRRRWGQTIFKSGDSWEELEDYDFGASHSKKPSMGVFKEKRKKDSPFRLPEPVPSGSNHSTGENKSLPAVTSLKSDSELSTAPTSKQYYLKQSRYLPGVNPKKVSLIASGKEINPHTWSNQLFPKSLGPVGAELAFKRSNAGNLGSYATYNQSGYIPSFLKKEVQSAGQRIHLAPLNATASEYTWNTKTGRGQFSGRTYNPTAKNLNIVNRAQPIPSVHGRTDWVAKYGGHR
# [14] = target: Ribosomal protein S6 kinase beta-1 (Homo sapiens) (UniProt P23443); test: Binding affinity to wild-type human partial length S6K1 (M1 to S421 residues) expressed in mammalian expression system assessed as residual binding level at 1 uM by Kinomescan method relative to control
# [15] = target: Phosphorylase b kinase gamma catalytic chain, liver/testis isoform (Homo sapiens) (UniProt P15735); test: Binding affinity to wild-type human partial length PHKG2 (M1 to W300 residues) expressed in bacterial expression system assessed as residual binding level at 1 uM by Kinomescan method relative to control
# [16] = target: Death-associated protein kinase 1 (Homo sapiens) (UniProt P53355); test: Binding affinity to wild-type human partial length DAPK1 (M1 to F296 residues) expressed in bacterial expression system assessed as residual binding level at 1 uM by Kinomescan method relative to control
# [17] = target: Serine/threonine-protein kinase SIK1 (Homo sapiens) (UniProt P57059); test: Binding affinity to wild-type human partial length SIK (M1 to Y304 residues) expressed in bacterial expression system assessed as residual binding level at 1 uM by Kinomescan method relative to control
# [18] = target: Tyrosine-protein kinase Srms (Homo sapiens) (UniProt Q9H3Y6); test: Binding affinity to wild-type human partial length SRMS (L208 to P488 residues) expressed in mammalian expression system assessed as residual binding level at 1 uM by Kinomescan method relative to control
# Sequence of Tyrosine-protein kinase Srms (Homo sapiens) (Q9H3Y6 whole entry, the tested form may be a part): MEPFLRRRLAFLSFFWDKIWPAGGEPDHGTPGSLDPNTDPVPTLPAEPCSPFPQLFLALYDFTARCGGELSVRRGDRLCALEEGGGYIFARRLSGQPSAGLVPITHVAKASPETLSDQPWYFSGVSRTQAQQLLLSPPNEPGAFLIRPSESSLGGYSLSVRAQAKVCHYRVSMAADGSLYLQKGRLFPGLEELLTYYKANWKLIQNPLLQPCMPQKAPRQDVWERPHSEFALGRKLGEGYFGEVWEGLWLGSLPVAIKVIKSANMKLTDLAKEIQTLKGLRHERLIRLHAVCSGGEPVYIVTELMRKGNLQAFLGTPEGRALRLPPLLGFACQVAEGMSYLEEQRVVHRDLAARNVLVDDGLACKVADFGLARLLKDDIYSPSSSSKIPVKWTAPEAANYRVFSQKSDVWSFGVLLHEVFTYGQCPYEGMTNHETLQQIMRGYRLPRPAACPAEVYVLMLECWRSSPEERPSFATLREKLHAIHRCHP
# [19] = tested on: Proto-oncogene tyrosine-protein kinase receptor Ret (Homo sapiens), P07949 [V804L]; test: Binding affinity to human partial length RET V804L mutant (E713 to D1014 residues) expressed in bacterial expression system assessed as residual binding level at 1 uM by Kinomescan method relative to control
# [20] = target: Aurora kinase C (Homo sapiens) (UniProt Q9UQB9); test: Binding affinity to wild-type human full length AURKC (M1 to S275 residues) expressed in bacterial expression system assessed as residual binding level at 1 uM by Kinomescan method relative to control
# Sequence of Aurora kinase C (Homo sapiens) (Q9UQB9 whole entry, the tested form may be a part): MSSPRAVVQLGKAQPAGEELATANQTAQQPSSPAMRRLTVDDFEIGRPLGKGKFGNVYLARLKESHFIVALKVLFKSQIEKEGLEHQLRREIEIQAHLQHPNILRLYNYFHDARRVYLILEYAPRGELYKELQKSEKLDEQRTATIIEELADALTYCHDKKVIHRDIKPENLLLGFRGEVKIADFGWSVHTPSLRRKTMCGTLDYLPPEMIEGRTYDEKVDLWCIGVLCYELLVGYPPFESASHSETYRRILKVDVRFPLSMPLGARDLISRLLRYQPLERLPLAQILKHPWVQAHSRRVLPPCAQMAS
# [21] = target: Serine/threonine-protein kinase OSR1 (Homo sapiens) (UniProt O95747); test: Binding affinity to wild-type human full length OSR1 (M1 to S527 residues) expressed in mammalian expression system assessed as residual binding level at 1 uM by Kinomescan method relative to control
# Sequence of Serine/threonine-protein kinase OSR1 (Homo sapiens) (O95747 2-527 limits assumed): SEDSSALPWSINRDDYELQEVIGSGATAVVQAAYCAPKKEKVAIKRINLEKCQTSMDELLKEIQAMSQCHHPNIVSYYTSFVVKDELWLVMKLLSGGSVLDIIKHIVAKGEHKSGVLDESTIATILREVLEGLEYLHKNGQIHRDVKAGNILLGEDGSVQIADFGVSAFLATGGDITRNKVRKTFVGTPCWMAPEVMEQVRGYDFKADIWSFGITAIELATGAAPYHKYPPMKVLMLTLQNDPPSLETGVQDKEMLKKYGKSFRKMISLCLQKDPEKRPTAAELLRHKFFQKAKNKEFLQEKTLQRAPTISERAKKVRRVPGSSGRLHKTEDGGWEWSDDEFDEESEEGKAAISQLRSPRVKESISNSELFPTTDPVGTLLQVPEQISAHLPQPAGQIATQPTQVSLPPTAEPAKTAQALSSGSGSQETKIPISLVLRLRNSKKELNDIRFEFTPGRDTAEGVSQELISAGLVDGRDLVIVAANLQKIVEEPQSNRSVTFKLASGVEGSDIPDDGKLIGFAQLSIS
# [22] = target: Mitogen-activated protein kinase kinase kinase 19 (Homo sapiens) (UniProt Q56UN5); test: Binding affinity to wild-type human partial length YSK4 (T1019 to H1328 residues) expressed in mammalian expression system assessed as residual binding level at 1 uM by Kinomescan method relative to control
# [23] = target: Tyrosine-protein kinase Lck (Homo sapiens) (UniProt P06239); test: Binding affinity to wild-type human partial length LCK (R207 to P509 residues) expressed in bacterial expression system assessed as residual binding level at 1 uM by Kinomescan method relative to control
# Sequence of Tyrosine-protein kinase Lck (Homo sapiens) (P06239 2-509 limits assumed): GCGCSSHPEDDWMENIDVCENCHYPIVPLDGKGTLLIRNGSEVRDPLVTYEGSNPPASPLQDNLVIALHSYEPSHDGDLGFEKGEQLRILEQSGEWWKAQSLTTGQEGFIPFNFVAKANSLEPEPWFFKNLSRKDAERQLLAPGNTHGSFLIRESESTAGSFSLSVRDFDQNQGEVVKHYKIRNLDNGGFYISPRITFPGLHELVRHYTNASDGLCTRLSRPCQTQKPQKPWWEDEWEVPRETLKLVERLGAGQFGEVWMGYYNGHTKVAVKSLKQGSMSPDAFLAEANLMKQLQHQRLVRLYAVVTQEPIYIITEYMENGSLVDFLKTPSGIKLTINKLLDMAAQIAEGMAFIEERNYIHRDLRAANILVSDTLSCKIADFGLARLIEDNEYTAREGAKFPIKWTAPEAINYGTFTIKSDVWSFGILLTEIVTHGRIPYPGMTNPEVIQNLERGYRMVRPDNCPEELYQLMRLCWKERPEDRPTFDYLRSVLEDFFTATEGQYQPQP
# [24] = target: Serine/threonine-protein kinase 24 (Homo sapiens) (UniProt Q9Y6E0); test: Binding affinity to wild-type human partial length MST3 (A30 to S311 residues) expressed in bacterial expression system assessed as residual binding level at 1 uM by Kinomescan method relative to control
# Sequence of Serine/threonine-protein kinase 24 (Homo sapiens) (Q9Y6E0 whole entry, looked up, the tested form may be a part): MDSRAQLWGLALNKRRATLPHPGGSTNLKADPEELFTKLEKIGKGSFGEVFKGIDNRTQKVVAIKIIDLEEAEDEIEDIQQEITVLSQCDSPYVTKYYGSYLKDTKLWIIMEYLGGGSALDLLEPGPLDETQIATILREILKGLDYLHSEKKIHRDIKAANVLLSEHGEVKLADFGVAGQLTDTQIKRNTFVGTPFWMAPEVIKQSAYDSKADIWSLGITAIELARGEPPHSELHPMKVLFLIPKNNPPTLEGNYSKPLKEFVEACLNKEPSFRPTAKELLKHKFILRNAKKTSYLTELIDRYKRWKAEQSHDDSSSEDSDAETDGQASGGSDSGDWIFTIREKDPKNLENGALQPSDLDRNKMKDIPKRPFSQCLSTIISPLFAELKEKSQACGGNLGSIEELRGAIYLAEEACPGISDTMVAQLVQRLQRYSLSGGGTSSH
# [25] = target: Aurora kinase A (Homo sapiens) (UniProt O14965); test: Binding affinity to wild-type human partial length AURKA (E122 to K401 residues) expressed in mammalian expression system assessed as residual binding level at 1 uM by Kinomescan method relative to control
# Sequence of Aurora kinase A (Homo sapiens) (O14965 whole entry, the tested form may be a part): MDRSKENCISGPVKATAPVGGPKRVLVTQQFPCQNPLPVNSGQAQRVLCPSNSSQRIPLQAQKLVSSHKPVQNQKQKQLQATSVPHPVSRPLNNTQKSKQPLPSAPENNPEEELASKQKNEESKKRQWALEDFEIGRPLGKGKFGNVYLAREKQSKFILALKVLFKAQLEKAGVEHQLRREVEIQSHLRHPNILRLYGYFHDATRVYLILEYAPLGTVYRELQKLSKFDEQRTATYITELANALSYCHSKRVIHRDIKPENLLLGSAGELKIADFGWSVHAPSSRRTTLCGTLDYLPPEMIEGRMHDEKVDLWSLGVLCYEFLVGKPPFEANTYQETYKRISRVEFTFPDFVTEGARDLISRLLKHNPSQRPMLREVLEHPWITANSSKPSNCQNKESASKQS
compound,measurement,setting,value
CC(C)Nc1sc(C(=O)c2ccc(Cl)s2)c(N)c1C#N,Activity,[1],74%
same,Activity,[2],100%
same,Activity,[3],94%
same,Activity,[4],100%
same,Activity,[5],96%
same,Activity,[6],100%
same,Activity,[7],100%
same,Activity,[8],89%
same,Activity,[9],93%
same,Activity,[10],81%
same,Activity,[11],100%
same,Activity,[12],100%
same,Activity,[13],100%
same,Activity,[14],93%
same,Activity,[15],72%
same,Activity,[16],100%
same,Activity,[17],100%
same,Activity,[18],91%
same,Activity,[19],97%
same,Activity,[20],100%
same,Activity,[21],83%
same,Activity,[22],100%
same,Activity,[23],93%
same,Activity,[24],99%
same,Activity,[25],100%

# — ChEMBL document CHEMBL4330132, “5-Keto-3-cyano-2,4-diaminothiophenes as selective maternal embryonic leucine zipper kinase inhibitors” (Bioorg Med Chem Lett, 2019)
